In ChEMBL document CHEMBL1201862, “PubChem BioAssay data set” (2004):
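Protocol summary: plate cells (96-well), add compound at 5 concentrations, incubate 48 h, interpolate endpoints linearly. GI50 is the concentration that inhibits growth by half.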 Calls of active or inactive are those of the source. Rule as the data show it: active = GI50 up to about 1.1 µM and inactive = higher.

How the values were obtained:
Test in all cases: NCI-60 cell line screen, 48 h
A498 = tested on: A498
A549 = tested on: A549
ACHN = tested on: ACHN
HCT-116 = tested on: HCT-116
HOP-92 = tested on: HOP-92
K562 = tested on: K562
LXFL 529 = tested on: LXFL 529
NCI-H226 = tested on: NCI-H226
NCI-H460 = tested on: NCI-H460
OVCAR-8 = tested on: OVCAR-8
SF-295 = tested on: SF-295
SK-MEL-2 = tested on: SK-MEL-2
SK-MEL-5 = tested on: SK-MEL-5
SK-OV-3 = tested on: SK-OV-3
SN12C = tested on: SN12C
SR = tested on: SR
SW-620 = tested on: SW-620
COLO 205 = tested on: COLO 205
MDA-MB-231 = tested on: MDA-MB-231
T47D = tested on: T47D

Compound | GI50 (A498) | GI50 (A549) | GI50 (ACHN) | GI50 (HCT-116) | GI50 (HOP-92) | GI50 (K562) | GI50 (LXFL 529) | GI50 (NCI-H226) | GI50 (NCI-H460) | GI50 (OVCAR-8) | GI50 (SF-295) | GI50 (SK-MEL-2) | GI50 (SK-MEL-5) | GI50 (SK-OV-3) | GI50 (SN12C) | GI50 (SR) | GI50 (SW-620) | GI50 (COLO 205) | GI50 (MDA-MB-231) | GI50 (T47D)
N#Cc1c2ccccc2c(Cc2ccc3c(c2)OCCOCCOCCOCCOCCO3)c2ccccc12 | 13.3 µM (inactive) | 4.29 µM (inactive) | 9.86 µM (inactive) | 6.12 µM (inactive) | 3.99 µM (inactive) | 3.15 µM (inactive) | 5.46 µM (inactive) | 11.9 µM (inactive) | 6.7 µM (inactive) | 5.65 µM (inactive) | 8.69 µM (inactive) | 6.34 µM (inactive) | 4.35 µM (inactive) | 13.6 µM (inactive) | 10.1 µM (inactive) | 24.5 µM (inactive) | 6.71 µM (inactive) |  |  | 
CC(=O)OC1OC2C(NC(=O)OC(C)(C)C)C1CC2(OCc1ccccc1)OCc1ccccc1 (configuration not stated) | 19.4 µM (inactive) | 36.5 µM (inactive) | 22.4 µM (inactive) | 16.7 µM (inactive) | 12.5 µM (inactive) | 17 µM (inactive) | 20 µM (inactive) | 24.7 µM (inactive) | 34.8 µM (inactive) | 53.8 µM (inactive) | 35.2 µM (inactive) | 19.8 µM (inactive) | 17.6 µM (inactive) | 28.3 µM (inactive) | 27.2 µM (inactive) | 17.8 µM (inactive) | 32.8 µM (inactive) | 21.7 µM (inactive) |  | 
C[C@@]1(O)CC[C@]2(C)C3CCCC3[C@H]12 (some centres not stated) | > 100 µM (inactive) | > 100 µM (inactive) | > 100 µM (inactive) | > 100 µM (inactive) | > 100 µM (inactive) | > 100 µM (inactive) | > 100 µM (inactive) | > 100 µM (inactive) | > 100 µM (inactive) | > 100 µM (inactive) | > 100 µM (inactive) | > 100 µM (inactive) | > 100 µM (inactive) | > 100 µM (inactive) | > 100 µM (inactive) | > 100 µM (inactive) | > 100 µM (inactive) | > 100 µM (inactive) |  | 
N#C/C(c1nc2ccccc2[nH]1)=c1\s/c(=C/c2ccc(Cl)cc2)c(=O)n1-c1ccccc1 | > 100 µM (inactive) | > 100 µM (inactive) | > 100 µM (inactive) | > 100 µM (inactive) | > 100 µM (inactive) | > 100 µM (inactive) | > 100 µM (inactive) | > 100 µM (inactive) | > 100 µM (inactive) | > 100 µM (inactive) |  | > 100 µM (inactive) | > 100 µM (inactive) | > 100 µM (inactive) | > 100 µM (inactive) | > 100 µM (inactive) | > 100 µM (inactive) | > 100 µM (inactive) |  | 
Cc1cc([N+](=O)[O-])ccc1Sc1c2ccccc2nc2cc(Cl)ccc12 | > 100 µM (inactive) | 46.5 µM (inactive) | 44.9 µM (inactive) | 28.1 µM (inactive) | 23.4 µM (inactive) | 36.1 µM (inactive) | 31 µM (inactive) | 61.5 µM (inactive) | 36.6 µM (inactive) | 21.8 µM (inactive) | 45.8 µM (inactive) | 22.9 µM (inactive) | 39.4 µM (inactive) | 47.2 µM (inactive) | 30.8 µM (inactive) | 26.9 µM (inactive) | 31.2 µM (inactive) | 38.4 µM (inactive) |  | 
FC(F)(F)c1ccc(C2SCc3nc4ccccc4n32)cc1 (configuration not stated) | 81.8 µM (inactive) | 41.8 µM (inactive) | 39.2 µM (inactive) | 27.9 µM (inactive) | 1.11 µM (active) | 3.75 µM (inactive) | 23.4 µM (inactive) | > 100 µM (inactive) |  | > 100 µM (inactive) | > 100 µM (inactive) | > 100 µM (inactive) | 11.5 µM (inactive) | 18.2 µM (inactive) | > 100 µM (inactive) | 16.2 µM (inactive) | > 100 µM (inactive) | > 100 µM (inactive) |  | 
CC1(C)C(=O)C(=Cc2ccco2)C1=O | > 100 µM (inactive) | > 100 µM (inactive) | > 100 µM (inactive) | > 100 µM (inactive) | > 100 µM (inactive) | > 100 µM (inactive) | > 100 µM (inactive) | > 100 µM (inactive) | > 100 µM (inactive) | > 100 µM (inactive) | > 100 µM (inactive) | > 100 µM (inactive) | > 100 µM (inactive) | > 100 µM (inactive) | > 100 µM (inactive) | > 100 µM (inactive) | > 100 µM (inactive) | > 100 µM (inactive) |  | 
CC(C)(CN1CCCCC1)C(=O)/C=C/c1ccc(/C=C/C(=O)C(C)(C)CN2CCCCC2)cc1 | 1.6 µM (inactive) | 0.933 µM (active) | 0.264 µM (active) | 0.303 µM (active) | 0.333 µM (active) | 0.103 µM (active) | 0.262 µM (active) | 1.84 µM (inactive) | 0.684 µM (active) | 1.02 µM (active) | 0.661 µM (active) | 1.25 µM (inactive) | 1.04 µM (active) | 1.57 µM (inactive) | 0.208 µM (active) | 0.103 µM (active) | 0.112 µM (active) | 0.152 µM (active) | 0.196 µM (active) | 0.525 µM (active)
O=C(c1ccccc1)C1(Br)S(=O)(=O)OCCOS1(=O)=O | > 100 µM (inactive) | > 100 µM (inactive) | > 100 µM (inactive) | > 100 µM (inactive) | > 100 µM (inactive) | > 100 µM (inactive) | > 100 µM (inactive) | > 100 µM (inactive) | > 100 µM (inactive) | > 100 µM (inactive) | > 100 µM (inactive) | > 100 µM (inactive) | > 100 µM (inactive) | > 100 µM (inactive) | > 100 µM (inactive) | > 100 µM (inactive) | > 100 µM (inactive) | > 100 µM (inactive) |  | 
CC1CC[C@]2(C(=O)O)CCC3(C)C(=CCC4[C@@]5(C)CC[C@H](OS(=O)(=O)c6ccccc6)C(C)(C)C5CC[C@]43C)[C@@H]2[C@H]1C (some centres not stated) | > 100 µM (inactive) | 36.6 µM (inactive) | 52.2 µM (inactive) | 27.2 µM (inactive) | > 100 µM (inactive) | 51.4 µM (inactive) | 69.8 µM (inactive) | 62.2 µM (inactive) | > 100 µM (inactive) | > 100 µM (inactive) | > 100 µM (inactive) | 48.9 µM (inactive) | > 100 µM (inactive) | > 100 µM (inactive) | > 100 µM (inactive) | 36.8 µM (inactive) | > 100 µM (inactive) | 38.1 µM (inactive) |  | 
COc1ccc(/C=C\c2cc(OC)c(OC)c(OC)c2)cc1 | < 0.01 µM (active) | 0.00051 µM (active) | 0.000653 µM (active) | 0.000279 µM (active) | 0.0127 µM (active) | 0.000102 µM (active) | 0.000507 µM (active) | 0.000499 µM (active) | < 0.01 µM (active) | 0.000832 µM (active) | 0.000185 µM (active) | < 0.01 µM (active) | < 0.0001 µM (active) | 0.000726 µM (active) | 0.000843 µM (active) | < 0.01 µM (active) | 0.000237 µM (active) | 0.0291 µM (active) |  | 
